From patent publication US9187458B2, “Cyanoquinoline derivatives” (Tianjin Hemay Bio-Tech Co., LTD., priority 2010, dated 2015) come the findings set out here.

In assay [1] the test system is AsPC-1 cells. In words: AsPC-1 Cell Growth Inhibition Test (MTT Assay). It is filed as cell-based. Conditions: Homo sapiens, ASPC1, 72 h incubation. The method, then:
AsPC-1 Cell Growth Inhibition Test (MTT Assay)
Cell strains: AsPC-1 (human pancreatic cancer cell strains);
(§1) 1. A plate (10 cm) of cells in logarithmic growth phase normally cultured was collected;
2. The culture solution was sucked out. The plate was washed with 5 ml of PBS 1-2 times;
(§2) 3. PBS was sucked out. 1.5 ml of 0.25% pancreatin was added to infiltrate the cells for 1 min;
4. The pancreatin was sucked out. The culture plate was placed in an incubator. Digestion was carried out for about 7.5 min at 37° C.;
5. 4.5 ml of complete culture solution was added to the culture plate to stop the digestion. The cells were carefully scoured with micropipette (1 ml) to give a uniform cell suspension. The suspension was implanted into a 96-well cell culture plate by 8000 cells/100 μl per well. The culture plate was incubated overnight under 5% CO2 at 37° C. In day 2, 100 μl of culture solution comprising a compound was added in each well, and further incubated for 72 h under 5% CO2 at 37° C.
(§3) 6. The culture solution was sucked out;
(§4) 7. 100 μl of serum-free culture solution containing 0.5 mg/ml MTT was added in each well, and incubated for 3 h;
(§5) 8. The culture solution was carefully sucked out;
(§6) 9. 100 μl of DMSO was added in each welland vibrated to dissolve;
(§7) 10. OD values were determined at 490 nM.
1. Calculation of Relative Inhibition Ratio The inhibition ratio of a compound on cell growth=(PC−n)/(PC−NC)×100%
(§8) IC50: Concentration of a compound where inhibition ratio was 50%. IC50 values were fitted with Origin7.5.

The subject of assay [2] is BT-474 cells. In words: BT-474 Cell Growth Inhibition Test (SRB Assay). It is filed as cell-based, human. Conditions: 70 h incubation; for pIC50 / inhibition at 1 µM: Homo sapiens; for inhibition at 1 µM: BT-474, 70 h, read-out: Growth Inhibition Ratio (%). The procedure, abridged: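 Human breast tumour BT-474 cells (1×10^5/ml seeding, overnight) exposed to compound 70 h at 37 °C, 5% CO2; TCA-fixed, SRB-stained, dye dissolved in 10 mM Tris and OD read at 570 nm. Inhibition ratio = (PC−n)/(PC−NC)×100%; IC50 is the concentration giving 50% inhibition, from fitted curves.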

For assay [3], the system named is Fadu cells. The assay is described as follows: Fadu Cell Growth Inhibition Test (MTT Assay). It is filed as cell-based. Conditions: Homo sapiens, 72 h incubation. The procedure, abridged: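 Fadu head and neck cancer cells in EMEM + 10% FBS, 6000 cells/well, dosed next day and incubated 72 h at 37 °C, 5% CO2. MTT 0.5 mg/ml for 3 h, DMSO solubilization, OD at 490 nm; inhibition ratio from positive and negative controls, IC50 from fitted curve.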

Assay [4] has as its system NCI-N87 cells. The assay is described as follows: NCI-N87 Cell Growth Inhibition Test (MTT Assay). It is filed as cell-based. As to conditions: Homo sapiens, 72 h incubation. The method, then: NCI-N87 Cell Growth Inhibition Test (MTT Assay)
1. Cell strains: NCI-N87 (human gastric carcinoma cell strains);
as §1
2. The culture solution was sucked out. The plate was washed wtih 5 ml of PBS 1-2 times;
as §2
4. The pancreatin was sucked out. The culture plate was placed in an incubator. Digestion was carried out for about 12 min at 37° C.;
5. 4.5 ml of complete culture solution was added to the culture plate to stop the digestion. The cells were carefully scoured with micropipette (1 ml) to give a uniform cell suspension. The suspension was implanted into a 96-well cell culture disc by 17000 cells/100 μl per well. The culture plate was incubated overnight under 5% CO2 at 37° C. In day 2, 100 μl of culture solution comprising a compound was added in each well, and further incubated for 72 h under 5% CO2 at 37° C.
as §3, §4, §5, §6, §7
1. Calculation of Rrelative Inhibition Ratio The inhibition ratio of a compound on cell growth=(PC−n)/(PC−NC)×100%
as §8

Assay [5] deals with NCI-H460 cells. The assay is described as follows: NCI-H460 Cell Growth Inhibition Test (MTT Assay). As to conditions: Homo sapiens, 72 h incubation. It is filed as cell-based. The procedure, abridged: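 Cells seeded at 2500 per well, left overnight, then exposed to compound for 72 h at 37 °C, 5% CO2. Viability by MTT (0.5 mg/ml, 3 h), DMSO-dissolved, OD 490 nm; inhibition ratio = (PC−n)/(PC−NC)×100%, IC50 from curve fit.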

pIC50: −log10 of the molar value.

Usually pIC50 stands for −log10 of the IC50, conventionally taken in molar units. Consider `N#Cc1cnc2cc(O[C@H]3CCOC3)c(NC(=O)/C=C/CN3CCCCC3)cc2c1Nc1ccc(OCc2ccccn2)c(Cl)c1` [Example 151, (S,E)-N-(4-(3-CHLORO-4-(PYRIDIN-2-YL-METHOXY)PHENYLAMINO)-3-CYANO-7-(TETRAHYDROFURAN-3-YL-OXY)QUINOLIN-6-YL)-4-(PIPERIDIN-1-YL)-BUT-2-ENAMIDE], for which the pIC50 in assay [1] was 6.09; in assay [2] it was 8.19; in assay [3] it was 6.61; in assay [4], 7.80. Besides, the inhibition at 1 µM in assay [2] (compound 1 μM) was 80%.
In the case of `C#Cc1cccc(Nc2c(C#N)cnc3cc(O[C@H]4CCOC4)c(NC(=O)/C=C/CNC(C)(C)C)cc23)c1` [Example 146, (S,E)-N-(3-CYANO-4-(3-ETHYNYLPHENYLAMINO)-7-(TETRAHYDROFURAN-3-YL-OXY)QUINOLIN-6-YL)-4-(TERT-BUTYLAIMINO)-BUT-2-ENAMIDE], the pIC50 was 6.63 in assay [2], 6.70 in assay [3] and 6.72 in assay [4].
Consider `C#Cc1cccc(Nc2c(C#N)cnc3cc(O[C@H]4CCOC4)c(NC(=O)/C=C/CN4CCCCC4)cc23)c1` [Example 144, (S,E)-N-(3-CYANO-4-(3-ETHYNYLPHENYLAMINO)-7-(TETRAHYDROFURAN-3-YL-OXY)QUINOLIN-6-YL)-4-(PIPERIDIN-1-YL)-BUT-2-ENAMIDE], for which the results for the pIC50 in assay [2], in assay [3] and in assay [4] were 6.89, 6.99 and 7.01, respectively.
Take `C#Cc1cccc(Nc2c(C#N)cnc3cc(O[C@H]4CCOC4)c(NC(=O)/C=C/CN(C)Cc4ccccc4)cc23)c1` [Example 149, (S,E)-N-(3-CYANO-4-(3-ETHYNYLPHENYLAMINO)-7-(TETRAHYDROFURAN-3-YL-OXY)QUINOLIN-6-YL)-4-(N-METHYLBENZYLAMINO)-BUT-2-ENAMIDE]: the pIC50 in assay [2] is 6.67; in assay [3], 6.79; in assay [4] it was 6.95. Also, the inhibition at 1 µM in assay [2] (compound 1 μM) is 79%.
Regarding `CN(C)C/C=C/C(=O)Nc1cc2c(Nc3ccc(OCc4ccccn4)c(Cl)c3)c(C#N)cnc2cc1OC1CCOC1` (centres unmarked) [Example 21, (E)-N-(4-(3-CHLORO-4-(PYRIDIN-2-YL-METHOXY)PHENYLAMINO)-3-CYANO-7-(TETRAHYDROFURAN-3-YL-OXY)QUINOLIN-6-YL)-4-(DIMETHYLAMINO)-BUT-2-ENAMIDE], the figures for the pIC50 in assay [5], in assay [2] and in assay [4] were 5.57, 8.44 and 8.17, respectively.
As for `CC(C)(C)NC/C=C/C(=O)Nc1cc2c(Nc3ccc(OCc4ccccn4)c(Cl)c3)c(C#N)cnc2cc1O[C@H]1CCOC1` [Example 153, (S,E)-N-(4-(3-CHLORO-4-(PYRIDIN-2-YL-METHOXY)PHENYLAMINO)-3-CYANO-7-(TETRAHYDROFURAN-3-YL-OXY)QUINOLIN-6-YL)-4-(TERT-BUTYLAMINO)-BUT-2-ENAMIDE], the pIC50 was 8.14 in assay [2], 6.64 in assay [3] and 7.82 in assay [4].
Regarding `CN(C)C/C=C/C(=O)Nc1cc2c(Nc3ccc(OCc4ccccn4)c(Cl)c3)c(C#N)cnc2cc1O[C@@H]1CCOC1` [Example 139, (R,E)-N-(4-(3-CHLORO-4-(PYRIDIN-2-YL-METHOXY)PHENYLAMINO)-3-CYANO-7-(TETRAHYDROFURAN-3-YL-OXY)QUINOLIN-6-YL)-4-(DIMETHYLAMINO)-BUT-2-ENAMIDE], the pIC50 in assay [1] is 6.37; in assay [2], 8.41; in assay [3], 6.70; in assay [4], 8.14. In addition, the inhibition at 1 µM in assay [2] (compound 1 μM) is 81%.
For `C#Cc1cccc(Nc2c(C#N)cnc3cc(O[C@H]4CCOC4)c(NC(=O)/C=C/CN(C)C)cc23)c1` [Example 140, (S,E)-N-(3-CYANO-4-(3-ETHYNYLPHENYLAMINO)-7-(TETRAHYDROFURAN-3-YL-OXY)QUINOLIN-6-YL)-4-(DIMETHYLAMINO)-BUT-2-ENAMIDE], the figures for the pIC50 in assay [5], in assay [2] and in assay [4] were 5.96, 7.48 and 7.82, respectively. The inhibition at 1 µM in assay [2] (compound 1 μM) was 85%.
As to `CN(C)C/C=C/C(=O)Nc1cc2c(Nc3cccc(Br)c3)c(C#N)cnc2cc1OC1CCOC1` (centres unmarked) [Example 7, (E)-N-(4-(3-BROMOPHENYLAMINO)-3-CYANO-7-(TETRAHYDROFURAN-3-YL-OXY)QUINOLIN-6-YL)-4-(DIMETHYLAMINO)-BUT-2-ENAMIDE], the pIC50 in assay [5] was 6.03; in assay [2] it was 6.51; in assay [3] it was 6.32; in assay [4] it was 6.95.
Take `CCN(CC)C/C=C/C(=O)Nc1cc2c(Nc3ccc(OCc4ccccn4)c(Cl)c3)c(C#N)cnc2cc1O[C@H]1CCOC1` [Example 150, (S,E)-N-(4-(3-CHLORO-4-(PYRIDIN-2-YL-METHOXY)PHENYLAMINO)-3-CYANO-7-(TETRAHYDROFURAN-3-YL-OXY)QUINOLIN-6-YL)-4-(DIETHYLAMINO)-BUT-2-ENAMIDE]: the pIC50 in assay [1] is 6.05; in assay [2], 8.31; in assay [3] it was 6.68; in assay [4] it was 8.18. For the same compound, the inhibition at 1 µM in assay [2] (compound 1 μM) was determined as 82%.
In the case of `C#Cc1cccc(Nc2c(C#N)cnc3cc(O[C@H]4CCOC4)c(NC(=O)/C=C/CN(CC)CC)cc23)c1` [Example 143, (S,E)-N-(3-CYANO-4-(3-ETHYNYLPHENYLAMINO)-7-(TETRAHYDROFURAN-3-YL-OXY)QUINOLIN-6-YL)-4-(DIETHYLAMINO)-BUT-2-ENAMIDE], the pIC50 is 6.83 in assay [2], 6.90 in assay [3] and 7.05 in assay [4]. For the same compound, in assay [2] (compound 1 μM), the inhibition at 1 µM is 87%.
`C#Cc1cccc(Nc2c(C#N)cnc3cc(OC4CCOC4)c(NC(=O)/C=C/CN(C)C)cc23)c1` (centres unmarked) [Example 5, (E)-N-(3-CYANO-4-(3-ETHYNYLPHENYLAMINO)-7-(TETRAHYDROFURAN-3-YL-OXY)QUINOLIN-6-YL)-4-(DIMETHYLAMINO)-BUT-2-ENAMIDE]: the pIC50 in assay [5] is 5.92; in assay [2] it was 7.39; in assay [4] it was 7.66. Also, in assay [2] (compound 1 μM), the “Growth Inhibition Ratio (%)” value was 85%.
On to `N#Cc1cnc2cc(O[C@H]3CCOC3)c(NC(=O)/C=C/CN3CCOCC3)cc2c1Nc1ccc(OCc2ccccn2)c(Cl)c1` [Example 152, (S,E)-N-(4-(3-CHLORO-4-(PYRIDIN-2-YL-METHOXY)PHENYLAMINO)-3-CYANO-7-(TETRAHYDROFURAN-3-YL-OXY)QUINOLIN-6-YL)-4-(MORPHOLIN-4-YL)-BUT-2-ENAMIDE], for which the pIC50 in assay [2] is 7.98; in assay [3], 6.77; in assay [4], 7.70. The inhibition at 1 µM in assay [2] (compound 1 μM) came to 78%.
As to `C#Cc1cccc(Nc2c(C#N)cnc3cc(O[C@@H]4CCOC4)c(NC(=O)/C=C/CN(C)C)cc23)c1` [Example 141, (R,E)-N-(3-CYANO-4-(3-ETHYNYLPHENYLAMINO)-7-(TETRAHYDROFURAN-3-YL-OXY)QUINOLIN-6-YL)-4-(DIMETHYLAMINO)-BUT-2-ENAMIDE], the pIC50 in assay [5] is 5.54; in assay [2] it was 7.02; in assay [4], 7.49. Also, the inhibition at 1 µM in assay [2] (compound 1 μM) was 89%.
As to `C#Cc1cccc(Nc2c(C#N)cnc3cc(O[C@H]4CCOC4)c(NC(=O)/C=C/CN4CCOCC4)cc23)c1` [Example 145, (S,E)-N-(3-CYANO-4-(3-ETHYNYLPHENYLAMINO)-7-(TETRAHYDROFURAN-3-YL-OXY)QUINOLIN-6-YL)-4-(MORPHOLIN-4-YL)-BUT-2-ENAMIDE], the pIC50 in assay [2] is 6.18; in assay [3], 6.71; in assay [4], 6.46. Further, the inhibition at 1 µM in assay [2] (compound 1 μM) worked out at 75%.
